Experiments:
sarcoma M-1 = test: Growth of sarcoma M-1 after PDT (tumor volume); assay type: in vivo, rats
Protocol: For this purpose, a laser medical instrument “ ? 680-2000” (BIOSPEC, Moscow) was used to perform the exposure at a wavelength of 670 nm in a dose of 100 J/cm^2. The power density was 0.51 W/cm^2, the output power was 0.4 W, and the spot light diameter was 1 cm. Time of exposure was […]. Monitoring over radiating power was conducted by a universal power meter included in the laser device “ ? 4680-2000”.

HeLa tumor cells = test: Cytotoxicity (antiproliferative assay) in the absence of light exposure; assay type: cell-based; conditions: for number of HeLa cells: no light, 24 hours
Protocol: Cytotoxicity was analyzed, considering the intensity of proliferative processes in cells, photosensitizer concentration, and dose of optical power. For each point, 3 flasks with cell monolayer were used.
The monolayer culture of HeLa tumor cells was chosen and used as the cell.
The culture of HeLa tumor cells was grown in nutrient medium 199 or in nutrient medium containing hemohydrolyzate supplemented with 10% fetal bovine serum and […] of kanamycin. […]
Flasks with light-protective cover (dark cytotoxicity) were incubated at 37.5° C. for 1 hour. The cells were washed with Hank's solution 4 times. 2.0 ml of fresh nutrient medium were added, and the cells were irradiated at the temperature of melting ice for 5, 10, 15 or 20 mins by the light flux of a “METALAZ” laser medical device (wavelength: 627.8 nm, 578.2 or 510.6 nm) or “LD 680-2000” (wavelength: 670-690 nm), depending on the wavelength of maximum spectral absorption of the studied photosensitizer, at a dose of 40 J/cm^2. After 20-24 hours, the number of tumor cell was counted in Goriaev's chamber.

HeLa cell culture = test: Phototoxicity (photodynamic activity), 3.5 h incubation, 3.3 joule/cm^2; assay type: cell-based; design: number of HELA cells relative to the control: unit not given here; conditions: photoexposure 3.3 joule/cm^2; for number of HELA cells relative to the control: 3.5 hours incubation
Protocol: To examine the photodynamic effects of a photosensitizer on a HeLa cell culture, the photosensitizer solution was added to the nutrient media at a final concentration of 0.1, 0.5, 1.0, 5.0 or 10 mcg/ml on day 3 after transplanting the cell culture into flasks. The flasks were wrapped with a light protecting cover, and incubated at 37° C. for 3.5 hours. Then, the cells were washed with Hank's solution, and exposed on ice by a laser medical device “LD 680-2000” (wavelength: 670-690 nm) at a dose of 3.3 joule/cm^2. After 20-24 hours, the available cell monolayer was dispersed using a 0.02%-Versene solution, and the number of tumor cells was calculated in Goriaev's chamber. For each point, 3 flasks were used.

[1] = Photophysical parameters (triplet state, intercombinative conversion) of chlorin e6 conjugate; assay type: physicochemical
Protocol: Values of Δ ? and Δ ? were determined after substantially transferring of all molecules of the studied substance in excited triplet state. In such conditions, ΔD=CΔεTl, wherein C indicates the molar concentration of the substance in solution, and l indicates the length of the optical way. As the standard to estimate γ, Pd(II)-octa ethyl porphyrin (Pd (II)-OEP) was selected, for which the γ value in benzol was considered as equal to one.

## [γ-(6-aminohexyl)folic acid]-chlorin e6 [chlorin e6 conjugate]
Sarcoma M-1; 2.5 mg/100 g + 100 J/cm^2 for 1 h, day 7
  Growth inhibition rate of sarcoma M-1 in volume to the control: 47.5%
Sarcoma M-1; 2.5 mg/100 g + 100 J/cm^2 for 1 h, day 10
  Growth inhibition rate of sarcoma M-1 in volume to the control: 79.4%
Sarcoma M-1; 2.5 mg/100 g + 100 J/cm^2 for 1 h, day 12
  Growth inhibition rate of sarcoma M-1 in volume to the control: 87.6%
Sarcoma M-1; 2.5 mg/100 g + 100 J/cm^2 for 1 h, day 14
  Growth inhibition rate of sarcoma M-1 in volume to the control: 89.8%
Sarcoma M-1; 2.5 mg/100 g + 100 J/cm^2 for 1 h, day 17
  Growth inhibition rate of sarcoma M-1 in volume to the control: 94.8%
Sarcoma M-1; 2.5 mg/100 g + 100 J/cm^2 for 1 h, day 19
  Growth inhibition rate of sarcoma M-1 in volume to the control: 94.1%
Sarcoma M-1; 2.5 mg/100 g + 100 J/cm^2 for 1 h, day 21
  Growth inhibition rate of sarcoma M-1 in volume to the control: 94.2%
Sarcoma M-1; 2.5 mg/100 g + 100 J/cm^2 for 1 h, day 24
  Growth inhibition rate of sarcoma M-1 in volume to the control: 93.6%
Sarcoma M-1; 2.5 mg/kg + 100 J/cm^2 for 1 h, day 7 after tumor transplant
  volume of sarcoma M-1: 0.25 ± 0.03 cm^3
Sarcoma M-1; 2.5 mg/kg + 100 J/cm^2 for 1 h, day 10
  volume of sarcoma M-1: 0.28 ± 0.03 cm^3
Sarcoma M-1; 2.5 mg/kg + 100 J/cm^2 for 1 h, day 12
  volume of sarcoma M-1: 0.34 ± 0.06 cm^3
Sarcoma M-1; 2.5 mg/kg + 100 J/cm^2 for 1 h, day 14
  volume of sarcoma M-1: 0.41 ± 0.09 cm^3
Sarcoma M-1; 2.5 mg/kg + 100 J/cm^2 for 1 h, day 17
  volume of sarcoma M-1: 0.46 ± 0.11 cm^3
Sarcoma M-1; 2.5 mg/kg + 100 J/cm^2 for 1 h, day 19
  volume of sarcoma M-1: 0.69 ± 0.27 cm^3
Sarcoma M-1; 2.5 mg/kg + 100 J/cm^2 for 1 h, day 21
  volume of sarcoma M-1: 0.96 ± 0.38 cm^3
Sarcoma M-1; 2.5 mg/kg + 100 J/cm^2 for 1 h, day 24
  volume of sarcoma M-1: 1.19 ± 0.48 cm^3
Sarcoma M-1; 5 mg/100 g + 100 J/cm^2 for 1 h, day 7
  Growth inhibition rate of sarcoma M-1 in volume to the control: 36.9%
Sarcoma M-1; 5 mg/100 g + 100 J/cm^2 for 1 h, day 10
  Growth inhibition rate of sarcoma M-1 in volume to the control: 77.9%
Sarcoma M-1; 5 mg/100 g + 100 J/cm^2 for 1 h, day 12
  Growth inhibition rate of sarcoma M-1 in volume to the control: 89.1%
Sarcoma M-1; 5 mg/100 g + 100 J/cm^2 for 1 h, day 14
  Growth inhibition rate of sarcoma M-1 in volume to the control: 92.6%
Sarcoma M-1; 5 mg/100 g + 100 J/cm^2 for 1 h, day 17
  Growth inhibition rate of sarcoma M-1 in volume to the control: 95.8%
Sarcoma M-1; 5 mg/100 g + 100 J/cm^2 for 1 h, day 19
  Growth inhibition rate of sarcoma M-1 in volume to the control: 95.9%
Sarcoma M-1; 5 mg/100 g + 100 J/cm^2 for 1 h, day 21
  Growth inhibition rate of sarcoma M-1 in volume to the control: 96.9%
Sarcoma M-1; 5 mg/100 g + 100 J/cm^2 for 1 h, day 24
  Growth inhibition rate of sarcoma M-1 in volume to the control: 97.1%
Sarcoma M-1; 5 mg/kg + 100 J/cm^2 for 1 h, day 7 after tumor transplant
  volume of sarcoma M-1: 0.29 ± 0.02 cm^3
Sarcoma M-1; 5 mg/kg + 100 J/cm^2 for 1 h, day 10
  volume of sarcoma M-1: 0.300 ± .03 cm^3
Sarcoma M-1; 5 mg/kg + 100 J/cm^2 for 1 h, day 12
  volume of sarcoma M-1: 0.30 ± 0.03 cm^3
Sarcoma M-1; 5 mg/kg + 100 J/cm^2 for 1 h, day 14
  volume of sarcoma M-1: 0.30 ± 0.03 cm^3
Sarcoma M-1; 5 mg/kg + 100 J/cm^2 for 1 h, day 17
  volume of sarcoma M-1: 0.37 ± 0.05 cm^3
Sarcoma M-1; 5 mg/kg + 100 J/cm^2 for 1 h, day 19
  volume of sarcoma M-1: 0.47 ± 0.11 cm^3
Sarcoma M-1; 5 mg/kg + 100 J/cm^2 for 1 h, day 21
  volume of sarcoma M-1: 0.50 ± 0.14 cm^3
Sarcoma M-1; 5 mg/kg + 100 J/cm^2 for 1 h, day 24
  volume of sarcoma M-1: 0.54 ± 0.17 cm^3
Sarcoma M-1; 10 mg/100 g + 100 J/cm^2 for 1 h, day 7
  Growth inhibition rate of sarcoma M-1 in volume to the control: 56.5%
Sarcoma M-1; 10 mg/100 g + 100 J/cm^2 for 1 h, day 10
  Growth inhibition rate of sarcoma M-1 in volume to the control: 86.0%
Sarcoma M-1; 10 mg/100 g + 100 J/cm^2 for 1 h, day 12
  Growth inhibition rate of sarcoma M-1 in volume to the control: 93.8%
Sarcoma M-1; 10 mg/100 g + 100 J/cm^2 for 1 h, day 14
  Growth inhibition rate of sarcoma M-1 in volume to the control: 95.8%
Sarcoma M-1; 10 mg/100 g + 100 J/cm^2 for 1 h, day 17
  Growth inhibition rate of sarcoma M-1 in volume to the control: 98.1%
Sarcoma M-1; 10 mg/100 g + 100 J/cm^2 for 1 h, day 19
  Growth inhibition rate of sarcoma M-1 in volume to the control: 95.2%
Sarcoma M-1; 10 mg/100 g + 100 J/cm^2 for 1 h, day 21
  Growth inhibition rate of sarcoma M-1 in volume to the control: 98.8%
Sarcoma M-1; 10 mg/100 g + 100 J/cm^2 for 1 h, day 24
  Growth inhibition rate of sarcoma M-1 in volume to the control: 98.9%
Sarcoma M-1; 10 mg/kg + 100 J/cm^2 for 1 h, day 7 after tumor transplant
  volume of sarcoma M-1: 0.20 ± 0.03 cm^3
Sarcoma M-1; 10 mg/kg + 100 J/cm^2 for 1 h, day 10
  volume of sarcoma M-1: 0.19 ± 0.04 cm^3
Sarcoma M-1; 10 mg/kg + 100 J/cm^2 for 1 h, day 12
  volume of sarcoma M-1: 0.17 ± 0.03 cm^3
Sarcoma M-1; 10 mg/kg + 100 J/cm^2 for 1 h, day 14
  volume of sarcoma M-1: 0.17 ± 0.03 cm^3
Sarcoma M-1; 10 mg/kg + 100 J/cm^2 for 1 h, day 17
  volume of sarcoma M-1: 0.17 ± 0.03 cm^3
Sarcoma M-1; 10 mg/kg + 100 J/cm^2 for 1 h, day 19
  volume of sarcoma M-1: 0.17 ± 0.03 cm^3
Sarcoma M-1; 10 mg/kg + 100 J/cm^2 for 1 h, day 21
  volume of sarcoma M-1: 0.20 ± 0.03 cm^3
Sarcoma M-1; 10 mg/kg + 100 J/cm^2 for 1 h, day 24
  volume of sarcoma M-1: 0.20 ± 0.03 cm^3
Sarcoma M-1; rats with sarcoma M-1, monitored for 24 days after PDT
  inhibition rate of tumor volumetric growth compared to the control: 86.34-99.1%
HeLa tumor cells; Hela cells, 24 hr incubation, absence of light exposure
  cell survival rate: about 90%
HeLa tumor cells; photosensitizer conc. 1 (μm)
  number of HeLa cells: 102.1 percentage of the control
HeLa tumor cells; photosensitizer conc. 2.5 (μm)
  number of HeLa cells: 95.6 percentage of the control
HeLa tumor cells; photosensitizer conc. 5.0 (μm)
  number of HeLa cells: 94.1 percentage of the control
HeLa tumor cells; photosensitizer conc. 10.0 (μm)
  number of HeLa cells: 95.9 percentage of the control
HeLa tumor cells; photosensitizer conc. 20.0 (μm)
  number of HeLa cells: 89.0 percentage of the control
HeLa tumor cells; photosensitizer conc. 30.0 (μm)
  number of HeLa cells: 86.6 percentage of the control
HeLa cell culture; 0.1 mcg/ml
  number of HELA cells relative to the control: 65.1
HeLa cell culture; 0.5 mcg/ml
  number of HELA cells relative to the control: 42.3
HeLa cell culture; 1.0 mcg/ml
  number of HELA cells relative to the control: 12.6
HeLa cell culture; 5-10 mcg/ml
  inhibition of proliferation of Hela cells: fully inhibited the proliferation
HeLa cell culture; 5.0 mcg/ml
  number of HELA cells relative to the control: 0.1
[1]; H2O, pH 8.1
  Δε^T: 278 dm^3 mol^−1 cm^−1
  γ (photoresponse of intercombinative conversion): 0.8
  τt (triplet lifetime, oxygen saturated): 2.5 μs
  τt^0 (triplet lifetime, deoxygenated): 170 μs
[1]; HSA, H2O, pH 8.1
  Δε^T: 798 dm^3 mol^−1 cm^−1
  γ (photoresponse of intercombinative conversion): 0.82
  τt (triplet lifetime, oxygen saturated): 14.7 μs
  τt^0 (triplet lifetime, deoxygenated): 700 μs
[1]; Liposomes, H2O, pH 8.1
  Δε^T: 251 dm^3 mol^−1 cm^−1
  γ (photoresponse of intercombinative conversion): 0.78
  τt (triplet lifetime, oxygen saturated): 1.4 μs
  τt^0 (triplet lifetime, deoxygenated): 70 μs
[1]; Pyridine
  Δε^T: 94 dm^3 mol^−1 cm^−1
  γ (photoresponse of intercombinative conversion): 0.81
  τt (triplet lifetime, oxygen saturated): 0.3 μs
  τt^0 (triplet lifetime, deoxygenated): 140 μs
[1]; Triton X-100
  τt (triplet lifetime, oxygen saturated): 2.6 μs
  τt^0 (triplet lifetime, deoxygenated): 230 μs
[1]; practically similar in all the systems
  γ (photoresponse of intercombinative conversion): ≈ 0.7

— patent US8735439B2, “Chlorin e6-folic acid conjugate, preparation method thereof, and a pharmaceutical composition for the treatment of cancer comprising the same” (Diatech Korea Co., Ltd., priority 2009, dated 2014)
